Laboratory results published in US20240057592A1, “PESTICIDE COMPOSITIONS OF PHENOL AND RESORCINOL DIENES AND TRIENES” (METABOLIC INSIGHTS LTD., priority 2020, published 2024).

How the values were obtained:
Rhizoctonia solani [1] = assay: Microplate based assay of bioactivity against Rhizoctonia solani; type: cell-based
Source text: • 1) Screen plate at 3 more dates: 3 d, 7 d, 14 d and 21 d following the assay start • 2) Calculate the difference of absorbance between each screen and the read at zero time • 3) Calculate the percentage of growth inhibition of each well at each time point. […]

Pythium aphanidermatum [2] = assay: Microplate based screening of bioactivity against Pythium aphanidermatum; type: cell-based
Protocol: The following Materials, methods and equipment were used: • Materials: SCH, PDBC, DMSO • Equipment: Plate reader, Centrifuge, Shaker, Incubator
• Grow Pythium aphanidermatum on SCH in 90 mm petri plates to get sporulating hyphae. […]
• 1) Read out the plate at 3 more dates: 3 d, 7 d, 14 d and 21 d following the assay start • 2) Calculate the difference of absorbance between each readout and the readout at zero time • 3) Calculate the percentage of growth inhibition of each well at each time point. […]

Pseudomonas syringae = assay: Microplate based screening of bioactivity against Pseudomonas syringae; type: cell-based
Protocol: • 1) Grow Pseudomonas on LBA plates at 28° C. for 2 days to get a single colony • 2) Transfer a single colony using a sterile toothpick into a 50 ml sterile tube containing 5 ml LB and grow for 24 at 28° C. and 150 RPM • 3) Chill the tube in the fridge for 1 h • 4) Add 7.5 ml of fridge cold, sterile, glycerol solution to the tube—to get 60% glycerol solution • 5) Mix well but gently to get perfect mixing—use vortex at 1000 RPM • 6) Aliquot 100 ul of bacteria suspension in 60% glycerol into 1.5 ml tubes—each aliquot should be enough for screening of 10 microplates • 7) Store the bacteria suspension in 60% glycerol at −20° C.
• 1) Take 1.5 ml tube with 100 ul frozen Pseudomonas suspension from the freezer and thaw it on ice • 2) Prepare in the hood 50 ml tubes with 40 ml fridge cold LB • 3) Mix 40 ul of bacteria suspension with 40 ml fridge cold LB in a 50 ml tube. This amount is enough for activity screening of 10 microplates • 4) Use this suspension for bioactivity screening experiments.
The bioactivity values are in % and reflect the potential of eradicating the target pests. Rules for Bioactivity Relative Value Calculation (Expressed in % from Maximal Value) • a. […] Pseudomonas syringae—activity grade (1/2/3)×repeats #X days of activity/168 (maximal value 3×4×14=168)*100

Pythium aphanidermatum [3] = assay: In-vivo validation under greenhouse conditions in cucumber seedlings infected with Pythium aphanidermatum; details: preventative treatment 24 h before inoculation, 7 d after inoculation, best of 9 experiments
Protocol: (§1) Formulation 3—Three types of stock solutions were used for final CART formulation preparation at 400 ppm: • (A) 0.1% CART solution in water+base (CART dissolved in water to 0.1% and sonicated for 10 mins at room temperature, then Na2CO3 25% stock was added to volume of 4% of the solution. The solution should be clear orange and at pH=8.0. The solution was sonicated for 20 minutes); • (B) 0.4% Xanthan Gum in water (w/w); • (C) 0.6% Silwet in water (w/w). The final formulation which was applied to cucumber seedlings composed of: 40% of stock solution A, 10% of stock solutions B and C, and 40% of water. The final formulation 3 was either applied as 400 ppm of diluted to the required concentrations and applied to cucumber seedlings. Formulation 4—Three types of stock solutions were used for final CART formulation preparation at 400 ppm: • (A) 10% CART in DMSO (CART dissolved in DMSO to 10% (w/w) and sonicated for 5 mins at room temperature); • (B) 0.4% Xanthan Gum in water (w/w); • (C) 0.6% Silwet in water (w/w). The final formulation which was applied to cucumber seedlings composed of: […], 10% of stock solutions B and C, and 76% of water. The final formulation 4 was either applied as 400 ppm of diluted to the required concentrations and applied to cucumber seedlings. […]
(§2) To evaluate the effect of a Cardol triene in infected plants compared to control plants (infected but not treated) the data was analyzed by Student's t-test and the p-value is calculated. […]
• General description: Pythium aphanidermatum disease severity development was evaluated following preventative treatment by Cardol triene (CART) […]

Rhizoctonia solani [4] = assay: In-vivo validation under greenhouse conditions in cucumber seedlings infected with Rhizoctonia solani; details: preventative treatment 24 h before inoculation, 7 d after inoculation, best of 9 experiments
Protocol: as §1, §2
• General description: Rhizoctonia disease severity were evaluated following preventative treatment with CART (Cardol triene). […]

[5] = 10 ul of 250 ppm solution + 40 ul inoculum, activity grade x repeats x days of activity/252*100, read to 21 d

For `C=CC/C=C\C/C=C\CCCCCCCc1cc(O)cc(O)c1` [Cardol triene, 5-8Z,11Z,14-pentadecatrien-1-yl-1,3-benzenediol], the “Relative Activity value (%)” value (Rhizoctonia solani [1]; [5]) was 60%, the “pesticidal activity in words” value (Rhizoctonia solani [1]; summary statement) was “effective pesticides” and the “Relative Activity value (%)” value (Pythium aphanidermatum [2]; [5]) was 100%. The “pesticidal activity in words” value (Pythium aphanidermatum [2]; summary statement) was “effective pesticides”, the “Relative Activity value (%)” value (Pseudomonas syringae; 10 ul of 250 ppm solution + 40 ul inoculum, activity grade x repeats x days of activity/168*100) was 50% and the “pesticidal activity in words” value (Pseudomonas syringae; summary statement) was “effective pesticides”. The “efficacy at preventing the plants death” value (Pythium aphanidermatum [3]; 100 ppm) was “up to 97.6%”, the “efficacy at preventing the plants death” value (Pythium aphanidermatum [3]; 200 ppm) was “up to 100%” and the “efficacy at preventing the plants death” value (Pythium aphanidermatum [3]; 400 ppm) was “up to 71.4%”. For the same molecule, the “efficacy at preventing the plants death” value (Rhizoctonia solani [4]; 100 ppm) was “up to 81.2%”, the “efficacy at preventing the plants death” value (Rhizoctonia solani [4]; 200 ppm) was “up to 100%” and the “efficacy at preventing the plants death” value (Rhizoctonia solani [4]; 400 ppm) was “up to 98.4%”.
